The record followed here is patent US20140018424A1, “PREVENTIVE EFFECT OF CITRULLINE ON THE SPONTANEOUS DEVELOPMENT OF TUMORS” (UNIVERSITE PARIS DESCARTES, priority 2011, published 2014).

Holding throughout (type): in vivo, male Sprague-Dawley rats
A short description of data set [1]: Body weight of aged rats before and after 12 weeks of supplementation.
The next data set has as its system tumours. The data set is described as follows: Incidence of tumours after euthanasia in aged rats. As to conditions: after euthanasia at 12 weeks; NEAA vs CIT p<0.05. The procedure:
(§1) Thirty-nine male Sprague-Dawley rats aged 20 months and free of tumours (Charles River, L'Arbresle, France) are used. They are raised individually in cages, at a temperature of 20-23° C., subjected to a cycle of 12 hours of light alternating with 12 hours of darkness. They have free access to water. For the acclimatization period, all the rats are fed a standard diet (59% carbohydrates, 3% lipids, 17% proteins and 21% fibres) ad libitum (UAR of 0.4 Dietex, Villemoisson-sur-Orge, France) for 2 weeks. The animals are cared for in accordance with French regulations on the protection of animals used for experimental and scientific purposes (D 2001-486) and with the Regulations of the European Community (Official Journal of the European Community, L538 12:18:1986).
(§2) After the acclimatization period, the rats are randomly divided into 2 groups.
(§3) In the “citrulline” group (CIT, n=19), the rats are fed ad libitum for 12 weeks with a citrulline-based supplement (1 g.kg^−1.day^−1 of citrulline) mixed with their standard diet. The dose of citrulline is calculated by extrapolation of the doses used in humans, taking into account the fact that the metabolic rate and nitrogen requirements are 10 times greater in rodents than those measured in humans and very close to the dose of arginine administered to rats for 12 weeks by Jobgen W. et al. (J Nutr 2009;139:230-7). […]

A further data set has as its system aged healthy rats. Kind of data set: Mortality over 12 weeks in aged healthy rats fed supplemented diet. Particulars: rats aged 20 months, supplemented diet ad libitum for 12 weeks; NEAA vs CIT p<0.05. The procedure:
as §1, §2, §3

In the next data set the test system is polyamines. The data set is described as follows: Level of polyamines in liver, jejunum and ileum of aged rats. On the procedure:
as §1, §2
In the “citrulline” group (CIT, n=19), the rats are fed ad libitum for 12 weeks with a citrulline-based supplement (1 g.kg^−1.day^−1 of citrulline) mixed with their standard diet. The dose of citrulline is calculated by extrapolation of the doses used in humans, taking into account the fact that the metabolic rate and nitrogen requirements are 10 times greater in rodents than those measured in humans and very close to the dose of arginine administered to rats for 12 weeks by Jobgen W. et al. (J Nutr 2009;139:230-7). This dose corresponds to approximately 9% of the nitrogen intake, i.e. approximately 7g/day in the healthy adult volunteer.
In the “non-essential amino acids” group (NEAA, n=20), the rats are fed ad libitum for 12 weeks with a standard food rendered isonitrogenous with respect to the citrulline group by the addition of non-essential amino acids: […], serine, alanine and glycine in an equimolar ratio.
The rats are euthanized in the post-absorptive state after treatment for 12 weeks. The statistical studies are carried out using Statview® software

Take `NC(=O)NCCCC(N)C(=O)O` (stereo not drawn) [CIT, 2-amino-5-(carbamoylamino)pentanoic acid]: the “effect of supplementation on body weight” value in data set [1] (12 weeks, 1 g.kg^-1.day^-1 in the diet) is given as “does not affect the body weight”. For the same compound, in data set [1] (after the 12-week supplementation, NEAA vs CIT N.S), the Final body weight is on record as 630 ± 13. The compound further registered an Initial body weight in data set [1] (before the 12-week supplementation, NEAA vs CIT N.S) of 669 ± 16. The “incidence of tumours (rats with tumours/rats assessed)” value in the data set with tumours is given as 0/19. In addition, the “mortality over 12 weeks (dead rats/rats in group)” value in the data set with aged healthy rats was 0/19. Besides, the “effect of supplementation on putrescine” value with polyamines (12 weeks of supplementation) is given as “significant increase”. In the data set with polyamines (after 12 weeks, p 0.028), the Ileum putrescine is given as 79.8 ± 25. This compound yielded a Liver putrescine in the data set on polyamines (after 12 weeks, p 0.034) of 17.1 ± 14.5. Moreover, in the data set with polyamines (after 12 weeks, p NS), the Ileum spermidine is 374 ± 70, the Ileum spermine came out at 203 ± 43, the Jejunum putrescine was 82.7 ± 36 and the Jejunum spermidine was 478 ± 200. In the data set on polyamines (after 12 weeks, p NS), this compound had a Jejunum spermine of 297 ± 88, a Liver spermidine of 372 ± 90 and a Liver spermine of 557 ± 245.
